Patent publication US9085570B2, “Substituted benzamides and their uses” (The Board of Trustees of the Leland Stanford Junior …, priority 2010, dated 2015)

Legend:
[1] = tested on: RCC4; assay: XTT cell viability assay in RCC4 cells (VHL-deficient renal carcinoma); assay type: cell-based; settings: four days drug exposure
Method: (§1) Cell Culture. RCC4 parental and RCC4 with VHL-reintroduced (RCC4/VHL), SN12C and SN12C-CSCG-VHL shRNA were maintained in DMEM supplemented with 10% FCS.
(§2) Cell Viability Assays. For 2,3-bis[2-methoxy-4-nitro-5-sulfophenyl]-2H-tetrazolium-5-carboxanilide (XTT) assays, five thousand cells were plated in 96-well plates. The next day, vehicle (DMSO) or drug was added by serial dilution. Four days later, media were aspirated, XTT solution (0.3 mg/ml of XTT (Sigma), […] N-methyl dibenxopyrazine methyl sulfate (Simga) in phenol red-free media) was added, and the plates were incubated at 37° C. for 1-2 hours. Metabolism of XTT was quantified by measuring the absorbance at 450 nm IC50s were calculated using linear interpolation. For clonogenic survival assays, three hundred cells were plated per 60 mm tissue culture dish. The cells were allowed to attach overnight and then treated with vehicle or drug for 14 days. Colonies were fixed and stained with crystal violet (0.1% crystal violet in 95% ethanol). All conditions were measured in triplicate and each experiment was done in duplicate or triplicate. To determine necrosis, cells were treated with drug for a given time point. Media and cells were collected, centrifugated, and resuspended in 0.4% trypan blue (Invitrogen). Live and dead cells were counted on a hematocytometer.
(§3) The designation A reflects an IC50 of <1 nM; B reflects an IC50 ranging from 1 to 20 nM; and C is an IC50 of >20 nM. The designation “a” reflects a ratio of RCC4/RCC-VHL+ranging from 1 to ≦10; “b” reflects from 10 to ≦100; “c” reflects a ratio of >100. Compounds I-29 have an IC50 value of ≦10 μM when tested in the above assay.

[2] = tested on: RCC4 with VHL-reintroduced (RCC4/VHL); assay: XTT cell viability assay in RCC4/VHL cells, selectivity ratio versus RCC4; assay type: cell-based; settings: Ratio = IC50RCC4/VHL/IC50RCC4
Method: as §1, §2, §3

IC50 ([1]; Homo sapiens, 96 h) [nM] | Compound | Ratio (IC50 RCC4 Proficient VHL)/ IC50 RCC4 Deficient VHL) [2] | IC50 [1] [nM] | Ratio [2]
< 1 | Cc1oc(-c2ccc(C(=O)NCc3cccnc3)cc2)nc1CS(=O)(=O)[C@@H]1CC[C@H](N2CCCC2)C1 [Example 51, 4-[5-Methyl-4-([[(1R,3S)-3-(pyrrolidin-1-yl)cyclopentane]sulfonyl]methyl)-1,3-oxazol-2-yl]-N-(pyridin-3-ylmethyl)benzamide] | b (from 10 to ≦100) |  | 
 | Cc1oc(-c2ccc(C(=O)NCc3cccnc3)cc2)nc1CS(=O)(=O)[C@H]1CC[C@@H](N)CC1 [Example 41, 4-(4-(((1s,4s)-4-aminocyclohexylsulfonyl)methyl)-5-methyloxazol-2-yl)-N-(pyridin-3-ylmethyl)benzamide] | b (from 10 to ≦100) | > 20 | 
< 1 | Cc1oc(-c2ccc(C(=O)NCc3cccnc3)cc2)nc1CS(=O)(=O)[C@H]1CC[C@H](N2CCCCC2)CC1 [Example 46, 4-[5-Methyl-4-([[4-(piperidin-1-yl)cyclohexane]sulfonyl]methyl)-1,3-oxazol-2-yl]-N-(pyridin-3-ylmethyl)benzamide] | b (from 10 to ≦100) |  | 
 | Cc1oc(-c2ccc(C(=O)NCc3cccnc3)cc2)nc1CS(=O)(=O)[C@H]1CC[C@H](N2CCCCC2)C1 [Example 49, 4-[5-Methyl-4-([[(1S,3S)-3-(piperidin-1-yl)cyclopentane]sulfonyl]methyl)-1,3-oxazol-2-yl]-N-(pyridin-3-ylmethyl)benzamide] | b (from 10 to ≦100) | < 1 | 
> 20 | O=C(Nc1cccnc1)c1ccc(CNS(=O)(=O)c2ccco2)cc1 [II-8, N-(3-Pyridinyl)-4-{[(2-furanylsulfonyl)amino]methyl}benzamide] |  |  | a (a ratio of RCC4/RCC-VHL+ranging from 1 to ≦10)
< 1 | Cc1oc(-c2ccc(C(=O)NCc3cccnc3)cc2)nc1CS(=O)(=O)[C@H]1CC[C@@H](N2CCCC2)CC1 [Example 42, 4-[5-methyl-4-([[4-(pyrrolidin-1-yl)cyclohexane]sulfonyl]methyl)-1,3-oxazol-2-yl]-N-(pyridin-3-ylmethyl)benzamide] | b (from 10 to ≦100) |  | 
> 20 | Cc1oc(-c2ccc(C(=O)NCc3cccnc3)cc2)nc1CS(=O)(=O)[C@H]1CC[C@H](N)CC1 [Example 44, 4-(4-[[(4-Aminocyclohexane)sulfonyl]methyl]-5-methyl-1,3-oxazol-2-yl)-N-(pyridin-3-ylmethyl)benzamide] | b (from 10 to ≦100) |  | 
> 20 | Cc1oc(-c2ccc(C(=O)NCc3cccnc3)cc2)nc1CS(=O)(=O)[C@@H]1CC[C@H](N)C1 [Example 50, 4-[4-([[(1R,3S)-3-Aminocyclopentane]sulfonyl]methyl)-5-methyl-1,3-oxazol-2-yl]-N-(pyridin-3-ylmethyl)benzamide] | b (from 10 to ≦100) |  | 
> 20 | Cc1oc(-c2ccc(C(=O)NCc3cccnc3)cc2)nc1CS(=O)(=O)[C@H]1CC[C@H](N)C1 [Example 47, 4-[4-([[(1S,3S)-3-Aminocyclopentane]sulfonyl]methyl)-5-methyl-1,3-oxazol-2-yl]-N-(pyridin-3-ylmethyl)benzamide] | b (from 10 to ≦100) |  | 
< 1 | Cc1oc(-c2ccc(C(=O)NCc3cccnc3)cc2)nc1CS(=O)(=O)[C@H]1CC[C@H](N2CCCC2)C1 [Example 48, 4-[5-Methyl-4-([[(1S,3S)-3-(pyrrolidin-1-yl)cyclopentane]sulfonyl]methyl)-1,3-oxazol-2-yl]-N-(pyridin-3-ylmethyl)benzamide] | b (from 10 to ≦100) |  | 
< 1 | Cc1oc(-c2ccc(C(=O)NCc3cccnc3)cc2)nc1CS(=O)(=O)[C@H]1CC[C@@H](N2CCCCC2)CC1 [Example 43, 4-[5-Methyl-4-([[4-(piperidin-1-yl)cyclohexane]sulfonyl]methyl)-1,3-oxazol-2-yl]-N-(pyridin-3-ylmethyl)benzamide] | b (from 10 to ≦100) |  | 
< 1 | Cc1oc(-c2ccc(C(=O)NCc3cccnc3)cc2)nc1CS(=O)(=O)C1CCN(C)CC1 [Example 40, 4-(5-Methyl-4-((1-methylpiperidin-4-ylsulfonyl)methyl)oxazol-2-yl)-N-(pyridin-3-ylmethyl)benzamide] | b (from 10 to ≦100) |  | 
> 20 | Cc1oc(-c2ccc(C(=O)NCc3cccnc3)cc2)nc1CS(=O)(=O)C1CCNCC1 [Example 39, 4-(5-Methyl-4-((piperidin-4-ylsulfonyl)methyl)oxazol-2-yl)-N-(pyridin-3-ylmethyl)benzamide] | b (from 10 to ≦100) |  | 
< 1 | Cc1oc(-c2ccc(C(=O)NCc3cccnc3)cc2)nc1CS(=O)(=O)[C@@H]1CC[C@H](N2CCCCC2)C1 [Example 52, 4-[5-Methyl-4-([[(1R,3S)-3-(piperidin-1-yl)cyclopentane]sulfonyl]methyl)-1,3-oxazol-2-yl]-N-(pyridin-3-ylmethyl)benzamide] | a (a ratio of RCC4/RCC-VHL+ranging from 1 to ≦10) |  | 
< 1 | Cc1oc(-c2ccc(C(=O)NCc3cccnc3)cc2)nc1CS(=O)(=O)C1CCN(C2CCCC2)CC1 [Example 54, 4-[4-[(1-cyclopentylpiperidine-4-sulfonyl)methyl]-5-methyl-1,3-oxazol-2-yl]-N-(pyridin-3-ylmethyl)benzamide] | b (from 10 to ≦100) |  | 
1 to 20 | Cc1oc(-c2ccc(C(=O)NCc3cccnc3)cc2)nc1CS(=O)(=O)[C@H]1CC[C@H](N2CCCC2)CC1 [Example 45, 4-[5-Methyl-4-([[4-(pyrrolidin-1-yl)cyclohexane]sulfonyl]methyl)-1,3-oxazol-2-yl]-N-(pyridin-3-ylmethyl)benzamide] | b (from 10 to ≦100) |  | 
< 1 | Cc1oc(-c2ccc(C(=O)NCc3cccnc3)cc2)nc1CS(=O)(=O)C1CCN(CC(C)C)CC1 [Example 53, 4-(5-methyl-4-[[1-(2-methylpropyl)piperidine-4-sulfonyl]methyl]-1,3-oxazol-2-yl)-N-(pyridin-3-ylmethyl)benzamide] | a (a ratio of RCC4/RCC-VHL+ranging from 1 to ≦10) |  | 

Compound | IC50 ([1]; Homo sapiens, 96 h) [nM] | Ratio (IC50 RCC4 Proficient VHL)/ IC50 RCC4 Deficient VHL) [2] | IC50 [1] [nM] | Ratio [2]
Cc1oc(-c2ccc(C(=O)NCc3cccnc3)cc2)nc1CS(=O)(=O)C1CCN(C2CCCCC2)CC1 [Example 55, 4-[4-[(1-cyclohexylpiperidine-4-sulfonyl)methyl]-5-methyl-1,3-oxazol-2-yl]-N-(pyridin-3-ylmethyl)benzamide] | < 1 | a (a ratio of RCC4/RCC-VHL+ranging from 1 to ≦10) |  | 
